From patent US11008334B2, “Compositions and methods for treating cancer” (The Regents of the University of California, priority 2012, dated 2021)
Like-named read-outs stand apart in the source and are kept apart here.

Target: T1, K-RasG12C (1-169) (Homo sapiens, UniProt P01116, G12C)
T1 construct: Un-tagged recombinant K-Ras G12C (1-169) at 4 μM in Buffer A; hexahistidine (cleaved yes); made in house; host or cells: Escherichia coli BL21 (DE)
Assay: Mass spectrometric screen for extent of covalent labeling
Format: binding
Details: for percent covalent labeling at 10 µM: 10 micromolar; for Labeling % (10 micM) 24h: 10 micM compound, (plate) or (single) measurement
Description: Un-tagged recombinant K-Ras G12C (1-169) at 4 μM in Buffer A was reacted with inhibitors at 200 μM or 10 μM (2% DMSO final). At 2, 6, and 24 hrs, 10 μL aliquots were removed and the reactions were stopped by addition of 1 μL 2% formic acid. The extent of modification was determined by mass spectrometry.

[1] = 2 h, 2 hrs, read-out: Percent reduction in activity of compound at 10 micromolar relative to control (no compound), 2 hrs
[2] = 6 h, 6 hrs, read-out: Percent reduction in activity of compound at 10 micromolar relative to control (no compound), 6 hrs
[3] = 24 h, 24 hrs, read-out: Percent reduction in activity of compound at 10 micromolar relative to control (no compound), 24 hrs

Row | SMILES | percent covalent labeling at 10 µM [1] | percent covalent labeling at 10 µM [2] | percent covalent labeling at 10 µM [3] | Labeling % (10 micM) 24h | Labeling % (10 micM) 24h (Table 5)
1 | C=CC(=O)NC1CCN(C(=O)COc2ccc(Cl)cc2Cl)CC1 [JO-01-171] | ≤ 5% | ≤ 5% | ≤ 5% | – | –
2 | C=CC(=O)N1CCN(C(=O)COc2ccc(Cl)cc2Cl)CC1 [JO-01-172] | ≤ 5% | ≤ 5% | ≤ 5% | – | –
3 | C=CS(=O)(=O)NC1CCN(C(=O)CSc2ccc(Cl)cc2Cl)CC1 [JO-02-26] | ≤ 5% | ≤ 5% | 5 to 20% | – | –
4 | C=CS(=O)(=O)NC1CCN(C(=O)COc2ccc(Cl)cc2Cl)CC1 [JO-02-31A] | ≤ 5% | ≤ 5% | – | ++ (plate) (5% < ++ <=20%) | ++ (plate) (5% < ++ <=20%)
5 | C=CS(=O)(=O)NC1CCN(C(=O)CSc2ccc(Cl)cc2C)CC1 [JO-02-31B] | ≤ 5% | ≤ 5% | 5 to 20% | – | –
6 | C=CS(=O)(=O)NC1CCN(C(=O)CSc2ccc(Cl)c3ccccc23)CC1 [JO-02-31C] | ≤ 5% | ≤ 5% | 20 to 40% | – | –
7 | C=CS(=O)(=O)NC1CCN(C(=O)CSc2c(Cl)cccc2Cl)CC1 [JO-02-31D] | ≤ 5% | ≤ 5% | ≤ 5% | – | –
8 | C=CS(=O)(=O)NCCNC(=O)COc1ccc(Cl)cc1Cl [JO-02-36A] | ≤ 5% | ≤ 5% | ≤ 5% | – | –
9 | C=CS(=O)(=O)NCCCNC(=O)COc1ccc(Cl)cc1Cl [JO-02-36B] | ≤ 5% | ≤ 5% | ≤ 5% | – | –
10 | C=CC(=O)NCCNC(=O)COc1ccc(Cl)cc1Cl [JO-02-37A] | ≤ 5% | ≤ 5% | ≤ 5% | – | –
11 | C=CC(=O)NCCCNC(=O)COc1ccc(Cl)cc1Cl [JO-02-37B] | ≤ 5% | ≤ 5% | ≤ 5% | – | –
12 | C=CS(=O)(=O)Nc1cc(-c2cccs2)n[nH]1 [JO-02-38B] | ≤ 5% | ≤ 5% | ≤ 5% | – | –
13 | C=CS(=O)(=O)NC1CCN(C(=O)c2cc3cc(Cl)ccc3[nH]2)CC1 [JO-02-49A] | ≤ 5% | ≤ 5% | ≤ 5% | – | –
14 | C=CS(=O)(=O)NC1CCN(C(=O)c2cc3cc(F)ccc3[nH]2)CC1 [JO-02-49B] | ≤ 5% | ≤ 5% | ≤ 5% | – | –
15 | C=CS(=O)(=O)NC1CCN(C(=O)c2cc3cc(OC)ccc3[nH]2)CC1 [JO-02-49C] | ≤ 5% | ≤ 5% | ≤ 5% | – | –
16 | C=CS(=O)(=O)N1CCC(NC(=O)COc2ccc(Cl)cc2Cl)CC1 [JO-02-55] | ≤ 5% | ≤ 5% | 5 to 20% | – | –
17 | C=CS(=O)(=O)NCC(=O)NC1CCN(C(=O)COc2ccc(Cl)cc2Cl)CC1 [JO-02-56A] | ≤ 5% | ≤ 5% | 40 to 60% | ++++ (plate) (40% < ++++ <=60%) | ++++ (plate) (40% < ++++ <=60%)
18 | C=CS(=O)(=O)NCC(=O)N1CCC(NC(=O)COc2ccc(Cl)cc2Cl)CC1 [JO-02-56B] | ≤ 5% | ≤ 5% | 5 to 20% | – | –
19 | O=C(NC1CCN(C(=O)COc2ccc(Cl)cc2Cl)CC1)C1CO1 (stereo not drawn) [JO-02-72] | ≤ 5% | ≤ 5% | ≤ 5% | – | –
20 | C=CS(=O)(=O)N1CC2CN(C(=O)COc3ccc(Cl)cc3Cl)CC2C1 (stereo not drawn) [JO-02-74A] | ≤ 5% | ≤ 5% | 20 to 40% | – | –
